Series [1] relates to 2-aminoadenine. The conditions noted are these: cited from earlier work.
For series [2], the target named is T1, KlenTaq polymerase (Thermus aquaticus, UniProt P19821).
T1 construct: The “Klenow” fragment of Taq polymerase (Titanuim™ Taq) was purchased from BD Biosciences; purchased BD Biosciences (Mountain View, Calif.)
Nature of the series: Running-start primer extension reactions, incorporation opposite template isoG. To be noted: template T-1, primer P-1, 72° C.; for incorporation / misincorporation opposite isoG (gel band, in words): time points 0.5, 1.0, 3.0 min. The series is classed as biochemical. On the procedure: (§1) The “Klenow” fragment of Taq polymerase (Titanuim™ Taq) was purchased from BD Biosciences (Mountain View, Calif.). As Titanium™ Taq is a “hot start” enzyme, the enzyme was heated to 95° C. for 2 minutes, followed by rapid cooling to ambient temperature prior to any primer extension reactions. Similarly, all polymerase chain reactions included an initial 2 minute 95° C. denaturation cycle.
In a typical primer extension reaction (25 μL total volume), 5′-^32P labeled primer (P-1, 25 pmol) and template (T-1, 30 pmol) were mixed with buffer (10 mM bis-trispropane-HCl pH 9.1, 5 mM MgCl2, 40 mM potassium acetate, 0.1 mg/ml bovine serum albumin), heated (95° C., 5 min), and cooled to room temperature over 1 hour. Polymerase (1 unit) was added, and the mixture again heated (72° C., 10 sec). Each PCR was initiated by adding the appropriate dNTPs (100 μM final concentration). Aliquots (2 μL) were removed from the mixture at time intervals, diluted into a PAGE loading/quench buffer (2 μL, 20 mM EDTA in formamide), heated (95° C., 5 min) and resolved by electrophoresis using a 20% PAGE (7 M urea). The gel was analyzed by phosphorimager. To enhance reproducibility, master mixes of the primer/template in buffer were prepared in large scale (100 μL).
Running-start primer extension reactions were performed with KlenTaq to determine the ability of the enzyme to incorporate either TTP or 2-thioTTP opposite isoG. For each reaction, the polymerase was challenged to misincorporate the respective triphosphate opposite the isoG residue at position 26 in the template (T-1), 3 nucleotides downstream of the primer (Pf-1) terminus. Reactions were run in parallel, one containing dGTP and TTP, one containing dGTP and 2-thioTTP, one containing dGTP and isoCTP (positive control), and one containing only dGTP (negative control). Aliquots of each reaction were quenched at various times and analyzed by PAGE on a 20% polyacrylamide gel.

The target in series [3] is T1, KlenTaq polymerase. Nature of the series: Direct nucleotide competition, single-turnover primer extension with APM gel separation. It is filed as biochemical. As for the experimental part: as §1
Single turnover primer extension reactions were performed by annealing 5′-^32P labeled primer (P-2f, 1 pmol) and template (T-2 or T-3, 1 pmol) in the appropriate buffer described above. Polymerase (1 pmol) was added, and the mixture was heated (72° C., 10 sec). The reaction was initiated by adding isoCTP (100 μM) and either 2-thioTTP (100 μM) or TTP (100 μM) in the presence of unlabeled trap DNA (P-2f, 100 pmol, T-2, 100 pmol). The reaction was quenched (20 mM EDTA in HCONH2) after 20 sec, and the samples resolved by 20% PAGE (7 M urea) containing p-acrylamidophenylmercury chloride (APM, 1 μg/mL). […] APM was synthesized as described [Igl88].
In two parallel reactions, one containing equal concentrations of 2-thioTTP and TTP, and one containing equal concentrations of 2-thioTTP and isoCTP, KlenTaq polymerase was challenged to choose a nucleotide to incorporate opposite isoG. […] The gel was analyzed via radioimaging.

Series [4] has as its target T1, KlenTaq polymerase. Nature of the series: PCR amplification using 2-thioTTP as substitute for TTP (30 rounds, template T-3). To be noted: 30 rounds of PCR, dATP, dCTP, dGTP plus thymidine analog, 2% agarose gel. It is filed as biochemical. As for the experimental part: as §1
Amplicons testing the substitution of 2-thioTTP for TTP in a PCR were generated as above, using primers P-2f and P-2r (1 pmol each), template T-3 (6×10^4 molecules), and either all four natural dNTPs (100 μM each) or by substituting 2-thioTTP for TTP.
After showing that 2-thioTTP is misincorporated less frequently than TTP opposite isoG residues, we then established that 2-thioTTP works in a PCR amplification. For this purpose, replicate polymerase chain reactions with KlenTaq polymerase were performed using the PCR replicon consisting of primers P-2f and P-2r and template T-3. Three reactions were run in parallel, one containing the four natural dNTPs (positive control), one containing dCTP, dGTP, dATP, and 2-thioTTP, and one without TTP (negative control). Each amplification was cycled for 30 rounds, and the products were analyzed by electrophoresis on a 2% agarose gel.

Series [5] has as its target T1, KlenTaq polymerase. Nature of the series: PCR fidelity assay of isoC:isoG base pair replication (acid cleavage at isoC). It is filed as biochemical. The conditions noted are these: six letter PCR, template T-2, 30 cycles, fit to Y=100×(½+f/2)^x. On the procedure:
as §1
For each 6-letter nucleotide system investigated, seven parallel PCR mixtures were cycled (30 rounds, 95° C. for 45 sec. then 45° C. for 45 sec. then 72° C. for 1.5 min) with the same amounts of primers P-2f (^32P labeled) and P-2r (1 pmol; 6×10^11 molecules) and varying concentrations of template T2. […] As each 10 fold dilution in template was equivalent to ca. 3.3 rounds of amplification, the fidelity of the isoC:isoG replication could be monitored on a round-by-round basis, with each amplicon requiring a different number of exponential amplifications to consume the primers (Table 2.)
Following amplification, the mixtures were treated with an equal volume of acetic acid (0.1 mM), and heated (95° C., 30 min), a procedure that depyrimidinylates the iso-cytidines that have been incorporated. […] The NH4OH was allowed to evaporate, and the mixtures diluted in 2 volumes of gel loading buffer (98% formamide, 10 mM EDTA, 1 mg/mL bromophenol blue, 1 mg/mL xylene cyanol FF) and analyzed by denaturing PAGE (17%). […]

Data on 3 compounds can be found in patent publication US7794936B1, “Using thymidine analogs to improve replication in an expanded genetic alphabet” (priority 2006, dated 2010).

T1 sequence (P19821 281-832 limits assumed): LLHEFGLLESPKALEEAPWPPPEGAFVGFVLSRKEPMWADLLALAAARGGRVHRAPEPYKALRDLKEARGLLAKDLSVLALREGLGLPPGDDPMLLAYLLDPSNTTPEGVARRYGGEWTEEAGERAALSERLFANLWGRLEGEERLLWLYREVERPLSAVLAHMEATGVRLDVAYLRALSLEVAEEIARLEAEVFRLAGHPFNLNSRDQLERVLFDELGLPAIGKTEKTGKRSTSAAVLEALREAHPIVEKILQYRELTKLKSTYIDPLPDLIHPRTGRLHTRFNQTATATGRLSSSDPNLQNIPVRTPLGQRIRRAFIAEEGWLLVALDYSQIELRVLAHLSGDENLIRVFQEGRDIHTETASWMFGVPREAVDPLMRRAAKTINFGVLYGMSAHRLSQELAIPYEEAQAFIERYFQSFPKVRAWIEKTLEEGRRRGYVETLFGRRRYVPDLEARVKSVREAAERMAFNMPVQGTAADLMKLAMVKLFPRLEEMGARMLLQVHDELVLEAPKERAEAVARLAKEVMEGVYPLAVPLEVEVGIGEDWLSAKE

Turning to `Cc1cn([C@H]2C[C@H](O)[C@@H](CO)O2)c(=S)[nH]c1=O` [2-thioT, 2-thiothymidine], the “decrease in Tm by pair with 2-aminoadenine” value in series [1] (20 nucleotide duplex) was 2.4 °C. Further, the “destabilization of the duplex (ΔG) by pair with 2-aminoadenine” value in series [1] (nucleobase pair between 2-thioT and 2-aminoadenine) was 0.8 kcal/mol.

Consider `Cc1cn([C@H]2C[C@H](O)[C@@H](COP(=O)(O)OP(=O)(O)OP(=O)(O)O)O2)c(=S)[nH]c1=O` [2-thioTTP, 2-thiothymidine triphosphate], for which the “incorporation / misincorporation opposite isoG (gel band, in words)” value in series [2] is “misincorporated very little”. The “substrate preference for incorporation opposite adenosine” value in series [3] (2-thioTTP and TTP in competition, template T-3) was “prefers 2-thioTTP over TTP”. Moreover, the “extended product resulting from incorporation of 2-thioTTP opposite isoG” value in series [3] (equal concentrations (100 μM) of 2-thioTTP and either TTP or isoCTP, template T-2, primer P-2f, 20 sec) is “less than 1%”. Also, the “amount of PCR product” value in series [4] is “comparable amounts of product”. For the same compound, the “fidelity-per-round of PCR for isoC:isoG base pair” value in series [5] is reported as 98%.

For `Nc1nc(=O)ccn1[C@H]1C[C@H](O)[C@@H](COP(=O)(O)OP(=O)(O)OP(=O)(O)O)O1` [isoCTP, 2′-deoxy-iso-cytidine triphosphate], the “incorporation opposite isoG, isoCTP relative to TTP” value in series [2] (after one and three minutes of incubation, dNTPs 100 μM) is on record as “approximately 2 fold”. Besides, in series [2], the “incorporation / misincorporation opposite isoG (gel band, in words)” value was “incorporated most efficiently”.
